# Test results reported in patent US12441732B2, “Potassium salt crystal form B of phosphodiesterase type 5 inhibitor, and preparation method and use therefor” (Guangzhou Huazhen Pharmaceutical Co., Ltd, priority 2019, dated 2025).
# Experiments:
# IPF rats = test: Bleomycin-induced idiopathic pulmonary fibrosis (IPF) rats; format: in vivo, SD rats; conditions: 23 days; for Fibrosis area / Fibrosis score (Ashcroft) / Percentage of score (%) (≤3) / Percentage of score (%) (≥4): left lung
# Protocol: The animals were purchased, and modeling was started after 3-7 days of acclimatization. The animals were weighed and anesthetized by inhalation with isoflurane. After the animals were confirmed to be anesthetized, the neck was disinfected, and the skin of the neck was cut. The main trachea was exposed by bluntly dissecting the muscle, a small incision was made between the tracheal rings, into which a PE-20 tube was inserted until the left main bronchus, and bleomycin was injected directly (dose: 3 mg/kg, volume: 1.0 ml/kg). The trachea and skin were sutured. After the surgery, the animals were kept warm at 37° C. under an electric blanket until the animals were fully awake and confirmed to be able to feed and drink freely before returning the animals to their normal feeding cages.
# 50 mg/kg Nintedanib group (BIBF-50 mg/kg): BIBF was prepared into a solution of 10 mg/ml with 0.5% sodium carboxymethyl cellulose and administered by gavage at a dose of 50 mg/kg^−1·d^−1;
# Each group of rats was administered by gavage on the day of modeling, once a day for 23 days in total.
# After 23 days of continuous administration, all animals in each group were euthanized by intraperitoneal injection of pentobarbital sodium anesthetic (100 mg/kg) in accordance with the KCl standard operating procedure for animal euthanasia. Whole-body perfusion was performed by low-temperature PBS, and then fixation was performed by whole-body formalin perfusion. The left lung was taken and perfused with an equal amount of formalin fluid for weighing and subsequent lung pathology-related tests.
# Left lung gross pathological examination: after perfusion with an equal amount of formalin, the wet weight of the left lung after the perfusion was weighed and recorded with a microbalance; the volume of the left lung after perfusion was measured and recorded using a toe volume measuring instrument.
# The whole lung of the left lung was dehydrated according to the KCl pathology standard SOPs, and paraffin blocks were prepared. The whole lung of the left lung was paraffin-sectioned at a thickness of 3-4 μm. HE staining and Masson Trichrome staining were performed according to the KCl pathology standard staining SOPs, and the slice panoramic scanning was carried out by a Hamamatsu NanoZoomer Digital Pathology (S210) slice scanner. The lung lesion area was calculated by Masson Trichrome staining of the sections, and the left lung fibrosis area (%) was the percentage of fibrosis area in the left lung area; 10 randomly selected fields of view of 1 mm^2 in the lesion area were semi-quantitatively scored by the pathologist under double-blind conditions according to the Ashcroft scoring system (as shown in Table 8 and FIG. 40).
# [1] = Solid-state stability test (one week, open); format: physicochemical; conditions: for HPLC purity: Purity after placement / Purity after placement/Starting purity / Crystal form change: open, one week; for Crystal form change: XRPD
# Protocol: The solid-state stability of the potassium salt crystal form B prepared in Embodiment 1 was tested, in which 5.22 mg of potassium salt crystal form B samples were weighed and left open at 25° C./60% RH, and 5.19 mg of potassium salt crystal form B samples were weighed and left open at 40° C./75% RH. After one week, all samples were subjected to XRPD characterization (see XRPD parameter settings in Table 1) and HPLC purity test (Agilent 1100) to detect changes in crystal form and purity, wherein HPLC purity test parameters were shown in Table 6. Meanwhile, 4.59 mg of a compound WYQ sample was weighed and left open at 25° C./60% RH, and 5.11 mg of the compound WYQ sample was weighed and left open at 40° C./75% RH. The solid-state stability of these samples were performed under the same conditions for comparative reference.
# UUO model mice = test: Unilateral ureteral obstruction mouse model (UUO model) of renal fibrosis; format: in vivo, C57BL/6 mice; conditions: 5 mg·kg^−1·d^−1 gavage, 7 days
# Text: Fifteen male C57BL/6 mice were adaptively fed for one week and randomly divided into two groups: a Sham group (a sham-operation group) including 5 mice and a surgical modeling group including 10 mice. Surgical method: the abdominal cavities of the mice in the sham-operation group were opened under anesthesia to free the left ureter without ligation, and then their abdomens were closed and sutured; the left ureters of the mice in the modeling group were ligated under anesthesia. The mice in the modeling group were further randomly divided into two groups: a UUO group (a model group) and a treatment group of the potassium salt crystal form B of WYQ (5 mg/kg), 5 mice in each group.
# The first gavage administration was started 2 hours after the operation.
# (2) treatment group of the potassium salt crystal form B of WYQ: the potassium salt crystal form B of WYQ was diluted into a 1 mg/ml solution with normal saline and administered by gavage at the dose of 5 mg·kg^−1·d^−1; and
# administered once a day for consecutive 7 days.
# After 7 days of drug administration, all the mice were sacrificed. The abdominal cavity was opened and the left and right kidney tissues were peeled off, caring to maintain the integrity of the kidneys. The kidneys were taken out and quickly transferred to pre-cooled PBS, and the kidneys were cut for different assays. The kidney was divided into four parts with a scalpel, and the dorsal side of the kidney was fixed in 4% paraformaldehyde for making paraffin sections. Morphological changes of kidney tissues were observed by HE staining and Masson staining, and changes of expression of fibrosis marker proteins in kidney tissues were observed by immunohistochemistry.
# PAH rats = test: Penile erectile function observation in PAH rats; format: in vivo, SD rats
# Protocol: After gavage treatment, penile erection in the animals was observed, wherein the time of penile erection phenomenon after gavage was recorded in each group.
# [2] = 10 mg/kg, listed as CPD-1, 10 mg/kg
# [3] = 10 mg/kg, listed as potassium salt crystal form B of WYQ
# [4] = both test conditions (25° C./60% RH, 40° C./75% RH)
compound,measurement,setting,value
CCCCOC(=O)[N-]S(=O)(=O)c1cccc(-c2nc3c(CCC)nn(C)c3c(=O)[nH]2)c1.[K+] [potassium salt crystal form B],Left lung volume,IPF rats; 2.5 mg/kg gavage once a day,1779.9 ± 105.76 mm^3
same,Left lung weight,IPF rats; 2.5 mg/kg gavage once a day,1.59 ± 0.10 g
same,alveolar tissue structure in left lung pulmonary fibrosis lesions (HE staining),IPF rats; 2.5 mg/kg,some of the alveolar structures in the fibrotic lesions were damaged
same,alveolar tissue structure in left lung pulmonary fibrosis lesions (Masson Trichrom staining),IPF rats; 2.5 mg/kg,some of the alveolar structures in the fibrotic lesions were preserved
same,Left lung volume,IPF rats; 10 mg/kg gavage once a day,1604.5 ± 153.72 mm^3
same,Left lung weight,IPF rats; 10 mg/kg gavage once a day,1.47 ± 0.16 g
same,alveolar tissue structure in left lung pulmonary fibrosis lesions (HE staining),IPF rats; 10 mg/kg,the alveolar structures in the fibrotic lesions were preserved
same,alveolar tissue structure in left lung pulmonary fibrosis lesions (Masson Trichrom staining),IPF rats; 10 mg/kg,most of the alveolar structures in the fibrotic lesions were preserved
same,smooth muscle proliferation and inflammatory cell infiltration in bronchioles and pulmonary arterioles of left lung fibrosis lesions vs model group,"IPF rats; 10 mg/kg, HE staining",better effects
same,left lung pulmonary fibrosis lesions and lesion range vs the model group,"IPF rats; different doses, H&E and Masson Trichrom staining",no significant difference
same,Fibrosis area,IPF rats; 2.5 mg/kg,51.99 ± 3.21%
same,Fibrosis score (Ashcroft),IPF rats; 2.5 mg/kg,3.21 ± 0.30
same,Percentage of score (%) (≤3),IPF rats; 2.5 mg/kg,53.75 ± 9.81%
same,Percentage of score (%) (≥4),IPF rats; 2.5 mg/kg,46.25 ± 9.81%
same,Fibrosis area,IPF rats; 10 mg/kg,53.42 ± 4.44%
same,Percentage of score (%) (≤3),IPF rats; 10 mg/kg,71.25 ± 10.08%
same,Fibrosis score (Ashcroft),IPF rats; [2],2.69 ± 0.31
same,Percentage of score (%) (≥4),IPF rats; [2],28.75 ± 10.08%
same,Fibrosis score (Ashcroft),IPF rats; [3],significantly inhibit
same,Percentage of score (%) (≥4),IPF rats; [3],significantly reduced
same,HPLC purity: Purity after placement,[1]; 25° C./60% RH,98.62 area %
same,Purity after placement/Starting purity,[1]; 25° C./60% RH,99.9%
same,Crystal form change,[1]; 25° C./60% RH,unchanged
same,HPLC purity: Purity after placement,[1]; 40° C./75% RH,98.51 area %
same,Purity after placement/Starting purity,[1]; 40° C./75% RH,99.8%
same,Crystal form change,[1]; 40° C./75% RH,unchanged
same,change in purity after one week of placement,[1]; [4],no significant change
same,change in the crystal form after one week of placement,[1]; [4],no change
same,FN1 protein expression level in kidney tissue (immunohistochemistry),UUO model mice,significantly reduced
same,fibrosis area in the renal fibrosis lesions vs UUO model group,UUO model mice,significantly decrease
same,proliferation of renal interstitial collagen fibers,UUO model mice,reduced
same,inflammatory cell infiltration in the kidney,UUO model mice; HE staining,significantly reduced
same,rats showing penile erection,"PAH rats; high-dose 20 mg·kg^−1d^−1, over 40 min after gavage",80%
same,rats showing penile erection,"PAH rats; low-dose 5 mg·kg^−1d^−1, over 1 h after gavage",50%
same,rats showing penile erection,"PAH rats; medium-dose 10 mg·kg^−1d^−1, over 1 h after gavage",80%
same,rats showing penile erection,"PAH rats; mini-dose 2 mg·kg^−1d^−1, over 1 h after gavage",30%
